The assay addresses T1, GPR103 E297^6.59A (Homo sapiens, UniProt Q96P65, E297A).
T1 construct: we used human full-length QRFPR-encoding plasmids; expressed in transfected cells; host or cells: HEK293 cells (HEK293A in the flow cytometry section), pCAGGS vector
T1 sequence (Q96P65 1-431 E297A): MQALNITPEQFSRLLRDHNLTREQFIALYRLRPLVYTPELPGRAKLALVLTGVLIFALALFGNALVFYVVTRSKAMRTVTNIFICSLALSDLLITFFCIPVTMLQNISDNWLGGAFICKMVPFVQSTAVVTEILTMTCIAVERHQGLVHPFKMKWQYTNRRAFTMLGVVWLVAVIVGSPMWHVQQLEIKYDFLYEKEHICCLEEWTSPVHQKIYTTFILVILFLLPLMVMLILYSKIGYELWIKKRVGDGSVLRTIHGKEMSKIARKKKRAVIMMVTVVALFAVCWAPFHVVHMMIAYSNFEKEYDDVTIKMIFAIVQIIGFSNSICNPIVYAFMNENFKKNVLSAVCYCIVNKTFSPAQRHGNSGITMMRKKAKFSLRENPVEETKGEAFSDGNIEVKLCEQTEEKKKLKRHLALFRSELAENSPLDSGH
Kind of assay: TGFα shedding assay; Exp. level >WT (1:1). The class given is cell-based. How it is done:
For the TGFα shedding assay and the flow cytometry analysis, we used human full-length QRFPR-encoding plasmids. Specifically, GPR103 was N-terminally modified with an HA signal sequence followed by a FLAG epitope and then a flexible linker ([…]; the FLAG epitope is underlined) and inserted into the pCAGGS vector. Plasmid encoding GPR103 mutants were generated using Quickchange Site-Directed Mutagensis kit (Agilent).
The TGFα shedding assay was performed as described previously with minor modifications. Plasmid transfection was performed in a 6-well plate with a mixture of 500 ng (per well in a 6-well plate) AP-TGFα-encoding plasmid and 200 ng GPR103-encoding plasmid. After 1-day culture, the transfected cells were harvested by trypsinization, pelleted by centrifugation at 190 × g for 5 min, and washed once with 5 mM HEPES (pH 7.4)-containing Hank’s Balanced Salt Solution (HBSS). After centrifugation, the cells were resuspended in 8 mL of the HEPES-containing HBSS. The cell suspension was seeded in a 96-well culture plate (cell plate) at a volume of 90 μL (per well hereafter) and incubated in a 37 °C incubator with 5% CO2 for 30 min. […] After spinning the cell plates at 190 × g for 2 min, 80 μL of conditioned media was transferred to an empty 96-well plate (conditioned media (CM) plate). Then, 80 μL of AP reaction solution (10 mM p-nitrophenylphosphate (p-NPP), 120 mM Tris-HCl (pH 9.5), 40 mM NaCl, and 10 mM MgCl2) was dispensed into the cell plates and the CM plates. Absorbance at 405 nm of the plates was measured using a microplate reader (SpectraMax 340 PC384, Molecular Devices) before and after 1-h incubation at room temperature. Ligand-induced AP-TGFα release was calculated by subtracting spontaneous AP-TGFα release signal from ligand-induced AP-TGFα release signal. The AP-TGFα release signals were fitted to a four-parameter sigmoidal concentration–response curve, using the Prism 10 software (GraphPad Prism). For each replicate experiment, the pEC50 parameter (negative logarithmic values of EC50 values) of the individual GPR103 mutants were normalized to that of the wild-type GPR103 performed in parallel, and resulting ∆pEC50 values were used to denote ligand response activity of the mutants. […]
Exp. le vel: WT (1:5 0)Exp. le vel: WT (1:5 0)Exp. le vel: WT (1:5 0)Exp. le vel: WT (1:2 0)Exp. le vel: WT (1:2 0)Exp. le vel: WT (1:1 0) […]
L1 4N - t e r mA F2 5N - t e r mA I 2 6N - t e r mA Y 2 9N - t e r mA C 9 82 .5 7A T10 22 .6 1A Exp . l eve l: WT (1 :5)Exp . l evel : >WT (1 :1)Exp. le vel: WT (1:2 0)Exp. le vel: WT (1:2 0)Exp. le vel: WT (1:5 0)Exp . l eve l: WT (1 :1) […]
Exp. le vel: WT (1:1 0)Exp. le vel: WT (1:2 0) C 1 1 83 .2 5AExp. le vel: WT (1:5 0)Exp. le vel: WT (1:5 0)Exp. le vel: WT (1:2 0)Exp . l eve l: WT (1 :5) […]
Exp. le vel: WT (1:5 0)Exp. le vel: WT (1:1 0)Exp. le vel: WT (1:5 0) E203ECL2AExp . l evel : >WT (1 :1)Exp. le vel: WT (1:5 0)Exp. le vel: WT (1:5 0) […]
Exp . l eve l: WT (1 :1) F28Exp. le vel: WT (1:5 0) C 2 8 56 .4 7AExp. le vel: WT (1:2 0) WExp. le vel: WT (1:2 0) F28Exp. le vel: WT (1:5 0)Exp . l evel : >WT (1 :1) […]
Exp. le vel: WT (1:5 0)Exp. le vel: WT (1:5 0) C 3 2 77 .4 8AExp . l eve l: WT (1 :5)Exp . l evel : >WT (1 :1)Exp . l evel : >WT (1 :1) […]
Suppl eme nt ary Figure 1 | Mutational analysis of GPR103. […]
mutants. Data are presented as mean values ± SEM, normally n=3-5; dots), each performed in triplicate. b-d Cell-surface expression (b) and QRFP26-in-duced activation of GPR103 (c, d) were analyzed by the flow cytometry and the TGFα shedding assay, respectively. From the concentration–response curves (a), Emax (c) and ΔpEC50 (d) values relative to the wild type were calculated. Colors in the mutant bars indicate an expression level matching to that of titrated wild type. Statistical analyses were performed using the ordinary one-way ANOVA followed by Dunnett tests with the expression-matched […]

The results in this text go back to article PMC11187126, “Structure and dynamics of the pyroglutamylated RF-amide peptide QRFP receptor GPR103” (Nature Communications, 2024).

Read-outs that look alike come from different tables or passages of the source. No end group written: not given here.

The term EC50 denotes the concentration giving half of the maximal effect. High values mean a less potent agent, low ones a more potent agent. Turning to TSGPLGNLAEELNGYSRKKGGFSFRF-NH2 [QRFP26], the Emax worked out at 106.77 % WT (Exp. #1); 105.91 % WT (Exp. #2); 110.91 % WT (Exp. #3); 108% (mean, read-out: Emax); 112 ± 1.3% (n = 3, read-out: Emax). For the same substance, the EC50 (n = 3) is 0.0282 µM.
